This note sets out measurements from ChEMBL document CHEMBL1157539, “Thousands of chemical starting points for antimalarial lead identification” (Nature, 2010).

The structures appear in SMILES notation.

This assay deals with Plasmodium falciparum. The assay is described as follows: GSK_TCMDC: Inhibition of Plasmodium falciparum 3D7 in whole erythrocytes, using parasite LDH activity as an index of growth. The note with it: Plasmodium falciparum, 3D7. The assay is classed as functional, organism-based.

Turning to `c1cncc(CN2CCCN(c3ccc4c(c3)CCN(Cc3ccc(-c5ncc[nH]5)cc3)CC4)CC2)c1`, the XC50 was 747 nM.
For the compound `Cc1noc(C)c1-c1ccc(C(=C2CCCCCC2)c2ccc(O)cc2)cc1`, the XC50 worked out at 189 nM.
The same measure for `Cc1ccc2c(Cc3cnc(N)nc3N)cc(C)c(N)c2n1`: 1420 nM; for `CCOC(=O)c1cnc2c(OC)cc(OC)c(Cl)c2c1Nc1cccc(C)c1`: 844 nM; for `O=C(Nc1cccc(-c2cc(-c3c(Cl)cccc3Cl)no2)c1)c1cncc(-c2cccs2)c1`: 952 nM.
`COc1ccccc1CNC(=O)CCn1c(=O)[nH]c2ccsc2c1=O`: the XC50 was found to be 1040 nM.
The value for `O=C1CCCN1CCCNCc1cccc(-c2cccc(-c3nc4cc(F)ccc4[nH]3)c2)c1` was 598 nM; that for `CCc1ccc(NC(=O)c2ccc(CN3CCCN(Cc4ccc(C)s4)CC3)cc2)cc1` was 1150 nM; that for `CC(C)CNCc1cccc(-c2ccc(CN(CCCN3CCN(C)CC3)C(=O)/C=C/c3ccccc3)cc2)c1` was 857 nM.
The same measure for `Cc1cccc2nc(-c3ccc(-c4ccc(CNCCc5ccncc5)cc4)cc3)[nH]c12`: 208 nM.
Take `O=C(NCCN1CCOCC1)c1ccc(N2CCC(Oc3ccc4ccccc4c3)CC2)nc1`: the XC50 stood at 763 nM.
The value for `O=C(Nc1ccc(C(F)(F)F)cc1)NC1CCN(CCCCCNC(=O)C2CC2c2ccc(Cl)c(Cl)c2)CC1` (centres undefined) was 626 nM.
As for `Cc1ccc(Nc2nccc(NCC(O)c3cccc(C)c3)n2)cc1` (centres undefined), the XC50 came out at 1020 nM.
The same measure for `Cc1cc(N[C@@H](CC(C)C)C(=O)Nc2ccccc2)nc(NCCc2ccc(F)cc2)n1`: 1090 nM; for `O=C(NC1CC1)c1cnc(N2CCC(COc3cccc(F)c3)CC2)c(Cl)c1`: 1200 nM; for `CCNc1nc(OCC(F)(F)F)nc(N(c2ccccc2)c2ccccc2)n1`: 472 nM.
The same measure for `O=C(Nc1ccc(Cl)cc1)Nc1ccc(-c2cccc(-c3nc4cc(F)ccc4[nH]3)c2)cc1`: 292 nM.
Consider `Cc1ccc(NC(=O)c2cc(S(=O)(=O)NC(C)(C)C)ccc2C)nc1`, for which the XC50 worked out at 756 nM.
The compound `c1ccc(COc2ccc(Cn3ccc(-c4ccc(-n5ccnc5)cc4)n3)cc2)cc1.c1ccc(COc2ccc(Cn3nccc3-c3ccc(-n4ccnc4)cc3)cc2)cc1` showed an XC50 of 1020 nM.
Turning to `O=C1OC(c2ccccc2)(c2ccccc2)CN1C1CCN(Cc2ccc(O)c(Cl)c2)C1` (centres undefined), the XC50 stood at 955 nM.
The value for `COc1ccc(CNC2Cc3ccccc3C2)cc1-c1ccc(S(=O)(=O)NCc2cccnc2)s1` was 1110 nM.
`O=C(Nc1ccc(-c2ccccc2)cc1)Nc1cccc(Cn2ncc(N3CCCNCC3)c(Cl)c2=O)c1` returned an XC50 of 225 nM.
The same measure for `Cc1ccc(NC(=O)c2ccc(N3CCN(c4ccncc4)CC3)cn2)cc1F`: 1570 nM.
The same measure for `COc1ccccc1C1CCN(C2CCC(NC(=O)/C=C/c3ccc(C(F)(F)F)cc3)CC2)CC1` (centres undefined): 1160 nM; for `Cn1nc(C(F)(F)F)c(-c2ccc(F)cc2)c1NC(=O)Nc1ccccc1`: 804 nM; for `CC(C)(CNCc1ccccc1)c1nc(-c2ccc(Cl)c(O)c2)c(-c2ccncc2)[nH]1`: 537 nM.
Compound `O=C(/C=C/c1ccc(Cl)c(Cl)c1)NCCCCCN1CCC(CCNC(=O)Cc2ccc(Cl)cc2)CC1` gave an XC50 of 1160 nM.
The same measure for `O=C(Nc1ccc(-c2ccc(-c3nc4ccccc4[nH]3)s2)cc1)Nc1ccc(Cl)c(Cl)c1`: 165 nM.
The value for `CN1CCN(c2ccnc3ccc(NC(=O)Cc4ccc5ccccc5c4)cc23)CC1` was 759 nM; that for `CC1CNC(c2ccc(NC(=O)Nc3ccc(C4=NC(C)CN4)cc3)cc2)=N1` (centres undefined) was 379 nM; that for `Cc1cc(N(C)C2CCN(C)C2)nc(Nc2ccc(Cl)cc2)n1` (centres undefined) was 336 nM.
As for `CN(CC(=O)Nc1cc(C(F)(F)F)ccc1-n1cncn1)Cc1nc2ccccc2s1`, the XC50 was 1410 nM.
The same measure for `CCOC(=O)c1cn(CC)c2cc(N(C)CCc3ccc(OC)c(OC)c3)c(F)cc2c1=O`: 425 nM; for `CCc1ccccc1N1CCN(CCCCNC(=O)c2ccc(NC(=O)c3ccc(Cl)cc3)cc2)CC1`: 960 nM.
